Target: ATX (human His-tagged) (Homo sapiens (Human), UniProt Q13822)
Assay: Human ATX enzyme inhibition assay (fluorescence quenching, MR121 substrate)
Type: biochemical
Settings: 30 nM ATX, 1 μM MR121 substrate, 30° C.
Description: Human ATX Enzyme Inhibition Assay
Assay working solutions were made as follows:

| SMILES | IC50 [nM] |
| --- | --- |
| O=C(OCc1cc(Cl)cc(Cl)c1)N1CCC2(CC1)CN(C(=O)c1ccc3[nH]nnc3c1)C2 [Example 1, 3,5-Dichlorobenzyl 2-(1H-benzo[d][1,2,3]triazole-5-carbonyl)-2,7-diazaspiro[3.5]nonane-7-carboxylate] | 15 |
| O=C(C#Cc1cccc(Cl)c1)N1CCC2(CC1)CN(C(=O)c1ccc3[nH]nnc3c1)C2 [Example 6.10, 1-(2-(1H-benzo[d][1,2,3]triazole-5-carbonyl)-2,7-diazaspiro[3.5]nonan-7-yl)-3-(3-chlorophenyl)prop-2-yn-1-one] | 826 |
| O=C(OCc1cncc(Cl)c1)N1CCC2(CC1)CN(C(=O)c1ccc3[nH]nnc3c1)C2 [Example 12.08, (5-chloropyridin-3-yl)methyl 2-(1H-benzo[d][1,2,3]triazole-5-carbonyl)-2,7-diazaspiro[3.5]nonane-7-carboxylate] | 3830 |
| O=C(OCc1ccccc1)N1CC2(CC(NS(=O)(=O)c3ccc4[nH]c(=O)oc4c3)C2)C1 [Example 3.2, benzyl 6-(2-oxo-2,3-dihydrobenzo[d]oxazole-6-sulfonamido)-2-azaspiro[3.3]heptane-2-carboxylate] | 298 |
| O=C(NCc1cnn[nH]1)C1CC2(CCN(C(=O)OCc3cc(Cl)cc(Cl)c3)CC2)C1 [Example 12.32, 2-[(3H-[1,2,3]triazol-4-ylmethyl)-carbamoyl]-7-aza-spiro[3.5]nonane-7-carboxylic acid 3,5-dichloro-benzyl ester] | 44 |
| CS(=O)(=O)c1cc(Cl)cc(COC(=O)N2CCC3(CC2)CN(C(=O)c2ccc(S(N)(=O)=O)cc2)C3)c1 [Example 1.17, 3-chloro-5-(methylsulfonyl)benzyl 2-(4-sulfamoylbenzoyl)-2,7-diazaspiro[3.5]nonane-7-carboxylate] | 729 |
| CC(C)c1cc(C#N)ccc1OCC(=O)N1CCC2(CC1)CN(C(=O)C1CCc3[nH]nnc3C1)C2 (stereo not drawn) [Example 1.25, 3-isopropyl-4-(2-oxo-2-(2-(4,5,6,7-tetrahydro-1H-benzo[d][1,2,3]triazole-5-carbonyl)-2,7-diazaspiro[3.5]nonan-7-yl)ethoxy)benzonitrile] | 74 |
| O=C(OCc1cc(Cl)cc(Cl)n1)N1CCC2(CC1)CN(C(=O)c1ccc3[nH]nnc3c1)C2 [Example 12.10, (4,6-dichloropyridin-2-yl)methyl 2-(1H-benzo[d][1,2,3]triazole-5-carbonyl)-2,7-diazaspiro[3.5]nonane-7-carboxylate] | 291 |
| O=C(NCc1c[nH]nn1)N1CC2(CCN(C(=O)OCc3ccc(OC(F)(F)F)cc3F)CC2)C1 [Example 14.01, [2-Fluoro-4-(trifluoromethoxy)phenyl]methyl 2-((1H-triazol-4-ylmethyl)carbamoyl)-2,7-diazaspiro[3.5]nonane-7-carboxylate] | 41.5 |
| O=C(NC1CC2(C1)CN(C(=O)c1ccc3[nH]nnc3c1)C2)OCc1cc(Cl)cc(Cl)c1 [Example 1.12, [2-(1H-benzotriazole-5-carbonyl)-2-aza-spiro[3.3]hept-6-yl]-carbamic acid 3,5-dichloro-benzyl ester] | 35 |
| O=C(OCc1cc(F)cc(OC(F)(F)F)c1)N1CCC2(CCCN(C(=O)c3ccc4[nH]nnc4c3)C2)C1 (stereo not drawn) [Example 1.20, 3-fluoro-5-(trifluoromethoxy)benzyl 7-(1H-benzo[d][1,2,3]triazole-5-carbonyl)-2,7-diazaspiro[4.5]decane-2-carboxylate] | 120 |
| O=C(OCc1ccc(Cl)c(F)c1)N1CCC2(CC1)CN(C(=O)c1ccc3[nH]nnc3c1)C2 [Example 12, 4-Chloro-3-fluorobenzyl 2-(1H-benzo[d][1,2,3]triazole-5-carbonyl)-2,7-diazaspiro[3.5]nonane-7-carboxylate] | 130 |
| O=C(CCc1cc(Cl)cc(Cl)c1)N1CCC2(CC1)CN(C(=O)c1ccc3[nH]nnc3c1)C2 [Example 1.04, 1-(2-(1H-benzo[d][1,2,3]triazole-5-carbonyl)-2,7-diazaspiro[3.5]nonan-7-yl)-3-(3,5-dichlorophenyl)propan-1-one] | 115 |
| O=C(c1cc(Cl)cc(Cl)c1)N1CCC2(CC1)CN(C(=O)c1ccc3[nH]nnc3c1)C2 [Example 6.3, (2-(1H-benzo[d][1,2,3]triazole-5-carbonyl)-2,7-diazaspiro[3.5]nonan-7-yl)(3,5-dichlorophenyl)methanone] | 2660 |
| O=C(NC1CC2(C1)CN(C(=O)CCc1cc(Cl)cc(Cl)c1)C2)c1ccc2[nH]nnc2c1 [Example 1.11, N-(2-(3-(3,5-dichlorophenyl)propanoyl)-2-azaspiro[3.3]heptan-6-yl)-1H-benzo[d][1,2,3]triazole-5-carboxamide] | 155 |
| O=C(OCc1ccc(Cl)cc1)N1CCC2(CC1)CN(C(=O)c1ccc3[nH]nnc3c1)C2 [Example 1.02, 4-chlorobenzyl 2-(1H-benzo[d][1,2,3]triazole-5-carbonyl)-2,7-diazaspiro[3.5]nonane-7-carboxylate] | 129 |
| O=C(OCc1cc(Cl)cc(Cl)c1)N1CCC2(C1)CN(C(=O)c1ccc3[nH]nnc3c1)C2 [Example 1.14, 3,5-dichlorobenzyl 2-(1H-benzo[d][1,2,3]triazole-5-carbonyl)-2,6-diazaspiro[3.4]octane-6-carboxylate] | 73.7 |

| SMILES | IC50 [nM] |
| --- | --- |
| O=C(OCc1ccccc1)N1CCC2(CC1)CC(Nc1ccc3[nH]c(=O)oc3c1)C2 [Example 11, Benzyl 2-(2-oxo-2,3-dihydrobenzo[d]oxazol-6-ylamino)-7-azaspiro[3.5]nonane-7-carboxylate] | 1290 |
| O=C(OCc1csc(Br)c1)N1CCC2(CC1)CN(C(=O)c1ccc3[nH]nnc3c1)C2 [Example 12.14, (5-bromothiophen-3-yl)methyl 2-(1H-benzo[d][1,2,3]triazole-5-carbonyl)-2,7-diazaspiro[3.5]nonane-7-carboxylate] | 270 |
| O=C(OCc1cc(Cl)cc(Cl)c1)N1CCC2(CC1)CN(C(=O)c1ccc3[nH]c(=O)oc3c1)C2 [Example 5, 3,5-Dichlorobenzyl 2-(2-oxo-2,3-dihydrobenzo[d]oxazole-6-carbonyl)-2,7-diazaspiro[3.5]nonane-7-carboxylate] | 7 |
| CS(=O)(=O)c1cc(Cl)cc(COC(=O)N2CCC3(CC2)CN(C(=O)c2cccc(S(N)(=O)=O)c2)C3)c1 [Example 1.18, 3-chloro-5-(methylsulfonyl)benzyl 2-(3-sulfamoylbenzoyl)-2,7-diazaspiro[3.5]nonane-7-carboxylate] | 625 |
| O=C(OCc1cc(Cl)cc(Cl)c1)N1CC2(CCN(C(=O)c3ccc4[nH]c(=O)oc4c3)CC2)C1 [Example 2.2, 7-(2-oxo-2,3-dihydro-benzooxazole-6-carbonyl)-2,7-diaza-spiro[3.5]nonane-2-carboxylic acid 3,5-dichloro-benzyl ester] | 13.7 |
| O=C(OCc1ccc(F)c(Cl)c1)N1CCC2(CC1)CN(C(=O)c1ccc3[nH]nnc3c1)C2 [Example 12.11, 3-chloro-4-fluorobenzyl 2-(1H-benzo[d][1,2,3]triazole-5-carbonyl)-2,7-diazaspiro[3.5]nonane-7-carboxylate] | 168 |
| O=C(NCc1c[nH]nn1)N1CC2(CCN(C(=O)OCc3ccc(OC(F)(F)F)cc3)CC2)C1 [Example 14, [4-(Trifluoromethoxy)phenyl]methyl 2-((1H-triazol-4-ylmethyl)carbamoyl)-2,7-diazaspiro[3.5]nonane-7-carboxylate] | 23 |
| O=C(OCc1cc(F)cc(OC(F)(F)F)c1)N1CCCC2(CCN(C(=O)c3ccc4[nH]nnc4c3)C2)C1 (stereo not drawn) [Example 12.30, 3-fluoro-5-(trifluoromethoxy)benzyl 2-(1H-benzo[d][1,2,3]triazole-5-carbonyl)-2,7-diazaspiro[4.5]decane-7-carboxylate] | 1600 |
| CS(=O)(=O)c1cc(Cl)cc(COC(=O)N2CCC3(CC2)CN(S(=O)(=O)c2ccc4[nH]c(=O)sc4c2)C3)c1 [Example 3.6, 3-chloro-5-(methylsulfonyl)benzyl 2-(2-oxo-2,3-dihydrobenzo[d]thiazol-6-ylsulfonyl)-2,7-diazaspiro[3.5]nonane-7-carboxylate] | 67 |
| O=C(OCc1ccc(C(F)(F)F)cc1F)N1CCC2(CC1)CN(C(=O)[C@@H]1CCc3[nH]nnc3C1)C2 [Example 16B, (R)-[2-fluoro-4-(trifluoromethyl)phenyl]methyl 2-[4,5,6,7-tetrahydro-1H-benzotriazole-5-carbonyl]-2,7-diazaspiro[3.5]nonane-7-carboxylate] | 9 |
| O=C(NC1CC2(C1)CN(C(=O)OCc1cc(F)cc(C(F)(F)F)c1)C2)c1ccc2[nH]nnc2c1 [Example 12.23, 6-[(1H-benzotriazole-5-carbonyl)-amino]-2-aza-spiro[3.3]heptane-2-carboxylic acid 3-fluoro-5-trifluoromethyl-benzyl ester] | 1910 |
| O=C(OCc1cc(Cl)cc(Cl)c1)N1CC2(CC(NS(=O)(=O)c3ccc4[nH]c(=O)oc4c3)C2)C1 [Example 3.4, 3,5-dichlorobenzyl 6-(2-oxo-2,3-dihydrobenzo[d]oxazole-6-sulfonamido)-2-azaspiro[3.3]heptane-2-carboxylate] | 19.5 |
| O=C(c1ccc2[nH]nnc2c1)N1CC2(CCN(c3nnc(-c4ccc(Cl)cc4)o3)CC2)C1 [Example 7.1, (1H-benzo[d][1,2,3]triazol-5-yl)(7-(5-(4-chlorophenyl)-1,3,4-oxadiazol-2-yl)-2,7-diazaspiro[3.5]nonan-2-yl)methanone] | 260 |
| O=C(COc1cc(Cl)cc(Cl)c1)N1CCC2(CC1)CN(C(=O)c1ccc3[nH]nnc3c1)C2 [Example 6.2, 1-(2-(1H-benzo[d][1,2,3]triazole-5-carbonyl)-2,7-diazaspiro[3.5]nonan-7-yl)-2-(3,5-dichlorophenoxy)ethanone] | 298 |
| O=C(c1ccc2[nH]nnc2c1)N1CC2(CCN(c3nnc(-c4cc(Cl)cc(Cl)c4)o3)CC2)C1 [Example 7, (1H-benzo[d][1,2,3]triazol-5-yl)(7-(5-(3,5-dichlorophenyl)-1,3,4-oxadiazol-2-yl)-2,7-diazaspiro[3.5]nonan-2-yl)methanone] | 43 |
| O=C(NC1CC2(C1)CN(S(=O)(=O)c1ccc3[nH]c(=O)oc3c1)C2)OCc1cc(Cl)cc(Cl)c1 [Example 3.5, [2-(2-oxo-2,3-dihydro-benzooxazole-6-sulfonyl)-2-aza-spiro[3.3]hept-6-yl]-carbamic acid 3,5-dichloro-benzyl ester] | 20 |

From patent US9493486B2, “Diazaspirocycloalkane and azaspirocycloalkane” (Hoffmann-La Roche Inc., priority 2012, dated 2016)
